Test results reported in patent US11549123B2, “Plant EPSP synthases and methods of use” (PIONEER HI-BRED INTERNATIONAL, INC., priority 2015, dated 2023).

How the values were obtained:
[1] = system: Type II EPSPS from Agrobacterium sp. strain CP4; settings: read-out: KM for PEP; U.S. Pat. No. 5,633,435; cited from earlier work
[2] = molecular target: EPSPS enzyme comprising 103I, 107S, and 445G (Zea mays, UniProt O24566, N444G/P106S/T102I); test: kcat/KM*KI of EPSPS comprising 103I, 107S, 445G; format: biochemical; settings: glyphosate as inhibitor
Excerpt: The EPSPS polypeptides and active variants and fragments thereof disclosed herein may have improved catalytic capacity in the presence of glyphosate when compared to previously identified EPSPS polypeptides. The parameter that best indicates the fitness of this trait in vivo is kcat/KM*KI. The EPSPS polypeptides disclosed herein can have an increased kcat/KM*KI, when compared to previously known EPSPS enzymes. By “increase” is intended any statistically significant increase when compared to an appropriate control. In some embodiments, an appropriate control is a previously known EPSPS sequence, such as that set forth in SEQ ID NO:2 (maize), SEQ ID NO:7 (rice), SEQ ID NO:8 (sorghum), SEQ ID NO:9 (sunflower), SEQ ID NO:13 (soybean), SEQ ID NO:14 (wheat), SEQ ID NO:15 (Brassica rapa), SEQ ID NO:16 (tomato), or SEQ ID NO:17 (potato). In some embodiments, the increase in the kcat/KM*KI when compared to SEQ ID NO:2, 7, 8 9, 13, 14, 15, 16, or 17 can comprise about a 150, 200, 250, 300, 350, 400, 450, 500, 550, 600, 650, 700, 750, 800-fold or greater increase. In still further embodiments, kcat/KM*KI may include, for example, a kcat/KM*KI of more than about 2000, 2500, 3000, 3500, 4000, 4500, 5000, 5500, 6000, 6500, 7000, 7500, 8000, 8500, 9000, 9500, 10000, or more.

[3] = molecular target: Zea mays EPSPS variant 771-C2 (A4W, H54M, L98C, G102A, K173R, I208L, K243E, E302S, T361S, E391P, D402G, A416G, V438R, S440R, T441Q, F442V), SEQ ID NO:4 (Zea mays, UniProt O24566, A3W/A415G/D401G/E301S/E390P/F441V/G101A/H53M/I207L/K172R/K242E/L97C/S439R/T360S/T440Q/V437R); test: EPSPS substrate saturation kinetics, 771-C2; format: biochemical
Procedure: EPSPS activity was determined by quantifying the phosphate generated from the EPSPS reaction. Release of inorganic phosphate was coupled to reaction with 2-amino-6-mercapto-7-methylpurine ribonucleoside, catalyzed by purine-nucleoside phosphorylase (M R Webb, Proc. Natl. Acad. Sci. 89:4884-4887, 1992). The absorbance change that occurs was monitored at 360 nm, where the extinction is 11,200 M^−1 cm^−1, with a Spectramax plate reader (Molecular Devices). To determine kinetic parameters, the varied substrate was present at seven concentrations (the eighth being the blank, containing no substrate) ranging from 4 to 400 uM and the unvaried substrate present at saturation. […] Reactions were monitored with a Spectramax plate reader. […] KI was then calculated from the following form of the Michaelis-Menten equation for competitive inhibition: KI=KM[I]/(KM app−KM) KM approximates the dissociation constant of the enzyme-substrate complex while kcat is the rate of conversion of substrate to product when the substrate concentration is saturating. kcat/KM is a widely accepted parameter for catalytic efficiency when substrate concentration is low (˜KM). […] The parameter kcat/KM×KI is used to quantify both catalytic efficiency and insensitivity and thus the overall fitness of the enzyme. […]

EPSPS enzyme comprising 103I, 107S, and 445G, sequence (O24566 entry or part of it T102I/P106S/N444G): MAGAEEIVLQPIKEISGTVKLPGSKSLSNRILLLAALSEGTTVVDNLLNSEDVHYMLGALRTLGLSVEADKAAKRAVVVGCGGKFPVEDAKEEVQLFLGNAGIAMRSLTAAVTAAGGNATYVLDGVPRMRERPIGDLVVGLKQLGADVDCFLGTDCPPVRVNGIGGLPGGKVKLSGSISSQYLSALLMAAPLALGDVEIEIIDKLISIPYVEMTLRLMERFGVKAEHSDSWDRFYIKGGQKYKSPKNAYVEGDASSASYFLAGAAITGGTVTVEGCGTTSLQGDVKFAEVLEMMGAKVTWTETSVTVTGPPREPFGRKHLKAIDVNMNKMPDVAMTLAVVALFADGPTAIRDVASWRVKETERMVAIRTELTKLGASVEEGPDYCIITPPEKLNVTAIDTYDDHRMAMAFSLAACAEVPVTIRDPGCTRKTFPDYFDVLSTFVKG

Row | Compound | Km [1] | (kcat/KM)*KI [2] | Ki [3] | (kcat/KM)*KI ([3]; PEP as substrate, glyphosate as inhibitor)
1 | C=C(OP(=O)(O)O)C(=O)O [PEP, phosphoenolpyruvate] | 12 µM | – | – | –
2 | O=C(O)CNCP(=O)(O)O [glyphosate, N-phosphonomethylglycine] | – | 2254 | 350 µM | 5800
